Where a name gives a salt, the structure may show the parent alone. Read-outs that look alike come from different tables or passages of the source.
Tests used:
[1] = target: menin/MLL (terbium chelate-labeled menin, FITC-MBM1 peptide) (Homo sapiens (Human), UniProt O00255); test: Menin/MLL homogenous time-resolved fluorescence (HTRF) assay; type: binding;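 also: IC50 from percent inhibition of HTRF signal, normalized between wells without competitor and wells with a saturating competitor that displaces FITC-MBM1 from His-tagged menin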
[2] = tested on: MEIS1 mRNA; test: MEIS1 mRNA expression assay (Quantigene Singleplex) in MOLM14 cells; type: cell-based, human; settings: 48 hours incubation;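 also: MEIS1 transcript levels read by probe hybridization and normalized to RPL28 mRNA, with IC50 fitted to fold changes across a rising compound concentration series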
[3] = HTRF-30 min incubation IC50, 30 min incubation

menin/MLL (terbium chelate-labeled menin, FITC-MBM1 peptide), sequence (O00255 other isoform, or with tags, fused parts or gaps): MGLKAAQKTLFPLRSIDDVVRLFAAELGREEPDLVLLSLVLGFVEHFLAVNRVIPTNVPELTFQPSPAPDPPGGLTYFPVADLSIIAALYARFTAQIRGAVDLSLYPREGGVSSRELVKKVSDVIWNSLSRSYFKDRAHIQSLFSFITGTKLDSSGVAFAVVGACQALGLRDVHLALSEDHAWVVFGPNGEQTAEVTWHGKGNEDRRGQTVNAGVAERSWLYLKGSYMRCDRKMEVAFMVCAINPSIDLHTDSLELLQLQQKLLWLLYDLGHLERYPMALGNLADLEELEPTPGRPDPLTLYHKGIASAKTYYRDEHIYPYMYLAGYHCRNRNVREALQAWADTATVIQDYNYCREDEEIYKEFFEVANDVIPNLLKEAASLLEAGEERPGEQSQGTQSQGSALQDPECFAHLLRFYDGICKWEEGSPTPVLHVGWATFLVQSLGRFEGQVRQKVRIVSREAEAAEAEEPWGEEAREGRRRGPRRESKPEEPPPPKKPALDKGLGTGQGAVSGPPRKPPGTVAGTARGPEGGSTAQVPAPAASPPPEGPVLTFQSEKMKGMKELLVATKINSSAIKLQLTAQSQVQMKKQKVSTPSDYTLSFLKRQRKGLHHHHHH

Molecule | IC50 [1, 3] [nM] | further results
CCN(C)C[C@@H](C[C@@H](C(C)C)N1CC2(CCN(c3ncnnc3Oc3ccc(F)cc3C(=O)N(CC)C(C)C)C2)C1)OC (single isomer, unassigned) [Compound 380, N-ethyl-2-((5-(2-((3*S,5*R)-6-(ethyl(methyl)amino)-5-methoxy-2-methylhexan-3-yl)-2,6-diazaspiro[3.4]octan-6-yl)-1,2,4-triazin-6-yl)oxy)-5-fluoro-N-isopropylbenzamide] | 40.5 | 
CCN(C(=O)c1cc(F)ccc1Oc1nncnc1N1CCC2(C1)CN([C@@H](C[C@@H](O)CN(C)CCOC)C(C)C)C2)C(C)C (single isomer, unassigned) [Compound 357, N-ethyl-5-fluoro-2-((5-(2-((3*S,5R)-5-hydroxy-6-((2-methoxyethyl)(methyl)amino)-2-methylhexan-3-yl)-2,6-diazaspiro[3.4]octan-6-yl)-1,2,4-triazin-6-yl)oxy)-N-isopropylbenzamide fumarate] | 7.77 | 
CCN(C(=O)c1cc(F)ccc1Oc1nncnc1N1CCC2(C1)CN([C@@H](C[C@@H](CN(C)C)OC)C(C)C)C2)C(C)C (single isomer, unassigned) [Compound 377, 2-((5-(2-((3*S,5*R)-6-(dimethylamino)-5-methoxy-2-methylhexan-3-yl)-2,6-diazaspiro[3.4]octan-6-yl)-1,2,4-triazin-6-yl)oxy)-N-ethyl-5-fluoro-N-isopropylbenzamide fumarate] | 15.4 | 
CCN(C(=O)c1cc(F)ccc1Oc1nncnc1N1CCC2(C1)CN([C@@H](C[C@H](C)CN(C)CCOC)C(C)C)C2)C(C)C (single isomer, unassigned) [Compound 243, N-ethyl-5-fluoro-N-isopropyl-2-((5-(2-((3*S,5*S)-6-((2-methoxyethyl)(methyl)amino)-2,5-dimethylhexan-3-yl)-2,6-diazaspiro[3.4]octan-6-yl)-1,2,4-triazin-6-yl)oxy)benzamide fumarate] | 7.39 | 
CCN(C(=O)c1cc(F)ccc1Oc1nncnc1N1CCC2(C1)CN([C@@H](C[C@@H](O)CN(C)C(C)C)C(C)C)C2)C(C)C (single isomer, unassigned) [Compound 326, N-ethyl-5-fluoro-2-((5-(2-((3*S,5*R)-5-hydroxy-6-(isopropyl(methyl)amino)-2-methylhexan-3-yl)-2,6-diazaspiro[3.4]octan-6-yl)-1,2,4-triazin-6-yl)oxy)-N-isopropylbenzamide fumarate] | 18.5 | 
CCN(CC)C[C@@H](O)C[C@H](C(C)C)N1CC2(CCN(c3ncnnc3Oc3ccc(F)cc3C(=O)N(CC)C(C)C)C2)C1 (single isomer, unassigned) [Compound 337, 2-(5-(2-((3*R,5*S)-6-(diethylamino)-5-hydroxy-2-methylhexan-3-yl)-2,6-diazaspiro[3.4]octan-6-yl)-1,2,4-triazin-6-yl)oxy)-N-ethyl-5-fluoro-N-isopropylbenzamide fumarate] | 4.57 | IC50 ([2]; Homo sapiens, MOLM-14, 48 h): > 1000 nM
COCCN(C)CCC[C@H](C(C)C)N1CC2(CCN(c3ncnnc3Oc3ccc(F)cc3C(=O)N(C)C(C)C)C2)C1 [Compound 415, (R)-5-fluoro-N-isopropyl-2-((5-(2-(6-((2-methoxyethyl)(methyl)amino)-2-methylhexan-3-yl)-2,6-diazaspiro[3.4]octan-6-yl)-1,2,4-triazin-6-yl)oxy)-N-methylbenzamide] | 0.084 | 
COCCN(C)CCC[C@@H](C(C)C)N1CC2(CCN(c3ccnnc3Oc3ccc(F)cc3C(=O)N(C(C)C)C(C)C)C2)C1 (single isomer, unassigned) [Compound 89, (*S)-5-fluoro-N,N-isopropyl-2-((4-(2-(6-((2-methoxyethyl)(methyl)amino)-methylhexan-3-yl)-2,6-diazaspiro[3.4]octan-6-yl)pyridazin-3-yl)oxy)benzamide oxalate] | 3.79 | 
CCN(CC)C[C@@H](O)C[C@@H](C(C)C)N1CC2(CCN(c3ncnnc3Oc3ccc(F)cc3C(=O)N(CC)C(C)C)C2)C1 (single isomer, unassigned) [Compound 335, 2-((5-(2-((3*S,5*S)-6-diethylamino)-5-hydroxy-2-methylhexan-3-yl)-2,6-diazaspiro[3.4]octan-6-yl)-1,2,4-triazin-6-yl)oxy)-N-ethyl-5-fluoro-N-isopropylbenzamide fumarate] | 5.49 | 
N-ethyl-(2-(((3-(2-(5 ethyl(methyl)amino)-5-methoxy-2-methylhexan-3-yl-2,&6-diazaspiro[3.4]octan-6-yl)-1,2,4-triazin-6-yl)oxy)-5-fluoro-N-isopropylbenzamide [Compound 313] |  | IC50 ([1]; read-out: HTRF-30 min incubation IC50, 30 min incubation): 1.99 nM; IC50 [2]: ~260 nM
CCN(C(=O)c1cc(F)ccc1Oc1nncnc1N1CCC2(C1)CN([C@@H](C[C@H](O)CN(C)C(C)C)C(C)C)C2)C(C)C (single isomer, unassigned) [Compound 324, N-ethyl-5-fluoro-2-((5-(2-((3*S,5*S)-5-hydroxy-6-(isopropyl(methyl)amino)-2-methylhexan-3-yl)-2,6-diazaspiro[3.4]octan-6-yl)-1,2,4-triazin-6-yl)oxy)-N-isopropylbenzamide fumarate] | 18.4 | 
CCN(C)C[C@H](C[C@@H](C(C)C)N1CC2(CCN(c3ncnnc3Oc3ccc(F)cc3C(=O)N(CC)C(C)C)C2)C1)OC (single isomer, unassigned) [Compound 379, N-ethyl-2-((5-(2-((3*S,5*S)-6-(ethyl(methyl)amino)-5-methoxy-2-methylhexan-3-yl)-2,6-diazaspiro[3.4]octan-6-yl)-1,2,4-triazin-6-yl)oxy)-5-fluoro-N-isopropylbenzamide] | 14.2 | 

More lines, in order of falling IC50 [1, 3], values ahead:

IC50 [1, 3] [nM] | Molecule | further results
27.3 | CCN(C(=O)c1cc(F)ccc1Oc1nncnc1N1CCC2(C1)CN([C@@H](C[C@H](CN(C)C)OC)C(C)C)C2)C(C)C (single isomer, unassigned) [Compound 378, 2-((5-(2-((3*S,5*R)-6-(dimethylamino)-5-methoxy-2-methylhexan-3-yl)-2,6-diazaspiro[3.4]octan-6-yl)-1,2,4-triazin-6-yl)oxy)-N-ethyl-5-fluoro-N-isopropylbenzamide fumarate] | 
12.3 | CCN(C(=O)c1cc(F)ccc1Oc1nncnc1N1CCC2(C1)CN([C@H](C[C@@H](C)CN(C)CCOC)C(C)C)C2)C(C)C (single isomer, unassigned) [Compound 240, N-ethyl-5-fluoro-N-isopropyl-2-((5-(2-((3*R,5*R)-6-((2-methoxyethyl)(methyl)amino)-2,5-dimethylhexan-3-yl)-2,6-diazaspiro[3.4]octan-6-yl)-1,2,4-triazin-6-yl)oxy)benzamide fumarate] | 
10.3 | CCN(C)C[C@@H](O)C[C@@H](C(C)C)N1CC2(CCN(c3ncnnc3Oc3ccc(F)cc3C(=O)N(C(C)C)C(C)C)C2)C1 (single isomer, unassigned) [Compound 392, 2-((5-(2-((3*S,5*S)-6-(ethyl(methyl)amino)-5-hydroxy-2-methylhexan-3-yl)-2,6-diazaspiro[3.4]octan-6-yl)-1,2,4-triazin-6-yl)oxy)-5-fluoro-N,N-diisopropylbenzamide fumarate] | 
9.52 | CCCN(C)C[C@@H](O)C[C@@H](C(C)C)N1CC2(CCN(c3ncnnc3Oc3ccc(F)cc3C(=O)N(CC)C(C)C)C2)C1 (single isomer, unassigned) [Compound 387, N-ethyl-5-fluoro-2-((5-(2-((3*S,5*S)-5-hydroxy-2-methyl-6-(methyl(propyl)amino)hexan-3-yl)-2,6-diazaspiro[3.4]octan-6-yl)-1,2,4-triazin-6-yl)oxy)-N-isopropylbenzamide fumarate] | 
9.45 | CCN(C(=O)c1cc(F)ccc1Oc1nncnc1N1CCC2(C1)CN([C@@H](CCCCN(C)C)C(C)C)C2)C(C)C (single isomer, unassigned) [Compound 212] | 
5.42 | CC(C)[C@H](C[C@@H](O)CN(C)C)N1CC2(CCN(c3ncnnc3Oc3ccc(F)cc3C(=O)N(C(C)C)C(C)C)C2)C1 (single isomer, unassigned) [Compound 370, 2-((5-(2-((3*S,5*R)-6-(dimethylamino)-5-hydroxy-2-methylhexan-3-yl)-2,6-diazaspiro[3.4]octan-6-yl)-1,2,4-triazin-6-yl)oxy)-5-fluoro-N,N-diisopropylbenzamide fumarate] | 
4.19 | CCN(C(=O)c1cc(F)ccc1Oc1nncnc1N1CCC2(C1)CN([C@@H](C[C@H](O)CN(C)CCOC)C(C)C)C2)C(C)C (single isomer, unassigned) [Compound 353, N-ethyl-5-fluoro-2-((5-(2-((3*S,5S)-5-hydroxy-6-((2-methoxyethyl)(methyl)amino)-2-methylhexan-3-yl)-2,6-diazaspiro[3.4]octan-6-yl)-1,2,4-triazin-6-yl)oxy)-N-isopropylbenzamide fumarate] | 
~3.93 | CCN(C)C[C@@H](O)C[C@@H](C(C)C)N1CC2(CCN(c3ncnnc3Oc3ccc(F)cc3C(=O)N(CC)C(C)C)C2)C1 (single isomer, unassigned) [Compound 343, N-ethyl-2-((5-(2-((3*S,5S)-6-(ethyl(methyl)amino)-5-hydroxy-2-methylhexan-3-yl)-2,6-diazaspiro[3.4]octan-6-yl)-1,2,4-triazin-6-yl)oxy)-5-fluoro-N-isopropylbenzamide fumarate] | IC50 ([2]; Homo sapiens, MOLM-14, 48 h): 530 nM
2.05 | COCCNCCC[C@@H](C(C)C)N1CC2(CCN(c3ncnnc3Oc3ccc(F)cc3C(=O)N(C(C)C)C(C)C)C2)C1 (single isomer, unassigned) [Compound 100, (*S)-5-fluoro-N,N-isopropyl-2-((5-(2-(6-((2-methoxyethyl)amino)-2-methylhexan-3-yl)-2,6-diazaspiro[3.4]octan-6-yl)-1,2,4-triazin-6-yl)oxy)benzamide oxalate] | 
0.086 | CCN(C(=O)c1cc(F)ccc1Oc1nnc(OC)nc1N1CCC2(C1)CN([C@H](CCCN)C(C)C)C2)C(C)C [Compound 407, (R)-2-((5-(2-(6-amino-2-methylhexan-3-yl)-2,6-diazaspiro[3.4]octan-6-yl)-3-methoxy-1,2,4-triazin-6-yl)oxy)-N-ethyl-5-fluoro-N-isopropylbenzamide formate] | IC50 ([2]; Homo sapiens, MOLM-14, 48 h): 380 nM

From patent US12473295B2, “Substituted straight chain spiro derivatives” (Janssen Pharmaceutica NV, priority 2019, dated 2025)
